Measured values: paper PMC6471177 (Pharmaceutics, 2019)

Columns and labels:
[1] = Rat plasma protein binding of docetaxel by equilibrium dialysis; format: in vitro ADME; settings: equilibrium dialysis
Method: A 1 mL of the plasma was dialyzed against 1 mL of isotonic Sørensen phosphate buffer (pH 7.4) containing 3% dextran (w/v) in a dialysis cell (Spectrum Medical Industries, Laguna Hills, CA, USA) using a Spectra/Por 4 membrane (mol. wt. cutoff 12−14 KDa; Spectrum Medical Industries, USA).

[2] = system: P-gp; assay: in vitro; settings: rat, pH 7.4
Method: To evaluate the effect of LC478 on P-gp mediated efflux activity in rat’s small intestine, transport experiments were conducted following the previously reported method. The incubation medium (pH 7.4) involving […], 5 mM KCl, 1.2 mM CaCl2, 1.2 mM MgCl2, 25 mM NaHCO3, 1.6 mM Na2HPO4, 0.4 mM NaH2PO4, 5 mM D-glucose, and 5 mM D-mannitol was used throughout the transport experiments. […] The small intestine (2 cm from the proximal part of jejunum) was removed, opened along the mesenteric border and rinsed immediately in ice-cold buffer (pH 7.4) under carbogen O2/CO2 (95%/5%) bubbling. The specimens were fixed to 0.61 cm^2 surface area of cells in the Ussing chambers without harming the underlying muscle layer and formed two compartments, mucosal (M) and serosal (S) chambers. […] Cumulative corrections were made for previously removed samples and apparent permeability coefficients (Papp, cm/s) were calculated as follows: Papp = Q/A·c·t, where Q is the total amount of the drug permeated throughout the incubation time, A is the diffusion area of the Ussing chamber, c is the initial drug concentration in the donor compartment, and t is the total time of the experiment. Efflux ratios were calculated from Papp values by: Efflux ratio = secretory Papp/absorptive Papp.

[3] = Disappearance of docetaxel in rat intestinal microsomes with LC478; format: in vitro ADME; settings: intestinal microsomes
Method: (§1) The hepatic and intestinal microsomes were prepared based on a similar reported method.
(§2) Adding 0.1 M phosphate buffer (pH 7.4) adjusted the total volume as 0.5 mL, and then the components were incubated at 37 °C using a thermomixer at 500 opm. After incubation of 15 and 30 min for the hepatic and intestinal microsomes, respectively, 1 mL of acetonitrile with 5 µg/mL of paclitaxel as an internal standard added to terminate the reaction.
(§3) The unweighted kinetic data from rat hepatic and intestinal microsomes were fitted using a single-site Michaelis–Menten Equation V = Vmax × [S]/(Km + [S])(4) where [S] is the substrate concentration, Vmax is maximal velocity, and Km is substrate concentration for half-maximal velocity. The CLint was calculated by dividing the Vmax by the Km.

[4] = Disappearance of docetaxel in rat hepatic microsomes with LC478; format: in vitro ADME; settings: hepatic microsomes
Method: as §1, §2, §3

[5] = cited from earlier work
[6] = in vivo; settings: for Funabs (true unabsorbed fraction) / absorbed fraction in the gastrointestinal tract: 24 h
From the text: Male Sprague–Dawley rats at 6–9 weeks old (weighing 200–260 g) were purchased from Charles River Company Korea (Orient, Seoul, Korea). […] All rats were maintained in the same conditions as a reported method.
For the oral study, after overnight fasting with free access to water, rats were divided into three subgroups according to the doses of LC478 administered, which were the same as in the intravenous study. […] Other procedures were followed to the intravenous study.
Based on the standard methods, we calculated the following pharmacokinetic parameters using non-compartmental analysis (WinNonlin®; Professional Edition version 2.1; Pharsight, Mountain View, CA, USA): The total area under the plasma concentration–time curve from time zero to last blood sampling time (AUClast) or time infinity (AUCinf) by log-linear trapezoidal extrapolation method, terminal half-life, time-averaged total body, renal, and non-renal clearances (CL, CLR, and CLNR, respectively), mean residence time (MRT), apparent volume of distribution at a steady state (Vss), apparent oral clearance (CL/F), and apparent volume of distribution during elimination (Vz/F). We directly read the peak plasma concentration (Cmax) and time to reach Cmax (Tmax) from the experimental data.
The absorbed fraction of oral dose (Fabs), absolute bioavailability (F), and relative bioavailability (Frel) were calculated by the following equations. (1) F (%)=AUCinf, p.o/AUCinf, i.v×100 (2) Frel (%)=AUCinf with LC478/AUCinf without LC478×100 (3) GI24 h, p.o/100=(1−Fabs)+(F/100×GI24 h, i.v./100)

[7] = male, Sprague-Dawley, rat, in vivo, po, 20 mg/kg
[8] = male, Sprague-Dawley, rat, in vivo, po, 30 mg/kg
[9] = male, Sprague-Dawley, rat, in vivo, po, 100 mg/kg

**Q.** Which “Bound fraction to fresh rat plasma” value ([1]; with 0 μg/mL LC478) does the source give for CC(=O)O[C@@]12CO[C@@H]1C[C@H](O)[C@@]1(C)C(=O)[C@H](O)C3=C(C)[C@@H](OC(=O)[C@H](O)[C@@H](NC(=O)OC(C)(C)C)c4ccccc4)C[C@@](O)([C@@H](OC(=O)c4ccccc4)[C@H]21)C3(C)C [docetaxel] here?
**A.** Its value is 30.6% ± 11.5%.

**Q.** And the “Bound fraction to fresh rat plasma” value ([1]; with 0.1 μg/mL LC478)?
**A.** Its value is 33.4% ± 3.59%.

**Q.** And the “Bound fraction to fresh rat plasma” value ([1]; with 10 μg/mL LC478)?
**A.** Its value is 29.7% ± 10.1%.

**Q.** What about the Papp B→A at 3 h, 1 µM [2] of the same molecule?
**A.** Its Papp B→A at 3 h, 1 µM is 1.08 ± 0.115 ×10⁻⁶ cm/s.

**Q.** What about the “Vmax for disappearance of docetaxel” value ([3]; 0 µM LC478) of the same molecule?
**A.** The value was 0.109 ± 0.0502 nmol/min/0.3 mg protein.

**Q.** And the “Vmax for disappearance of docetaxel” value ([3]; 1 µM LC478)?
**A.** The value was 0.133 ± 0.0343 nmol/min/0.3 mg protein.

**Q.** And the “Vmax for disappearance of docetaxel” value ([3]; 5 µM LC478)?
**A.** Its value is 0.133 ± 0.0737 nmol/min/0.3 mg protein.

**Q.** And the “Vmax for disappearance of docetaxel” value ([3]; 10 µM LC478)?
**A.** The value was 0.105 ± 0.0355 nmol/min/0.3 mg protein.

**Q.** What about the “Vmax for disappearance of docetaxel” value ([4]; 5 µM LC478) of the same molecule?
**A.** Its value is 0.438 ± 0.0578 nmol/min/mg protein.

**Q.** And the “Vmax for disappearance of docetaxel” value ([4]; 10 µM LC478)?
**A.** Its value is 0.427 ± 0.0411 nmol/min/mg protein.

**Q.** What about the oral bioavailability [5] of the same molecule?
**A.** The oral bioavailability was “less than 5 % of the oral dose”.

**Q.** What about the “CLR,fu (CLR considering the free fraction in plasma)” value ([6]; male, Sprague-Dawley, rat, in vivo) of the same molecule?
**A.** The value was 5.04 mL/min/kg.

**Q.** And the “CLR,fu (CLR considering the free fraction in plasma)” value ([6]; male, Sprague-Dawley, rat, in vivo, 30 mg/kg)?
**A.** The value was 5.15 mL/min/kg.

**Q.** What about the “CLR,fu (CLR considering the free fraction in plasma)” value ([6]; male, Sprague-Dawley, rat, in vivo, 100 mg/kg) of the same molecule?
**A.** Its value is 2.55 mL/min/kg.

**Q.** What about the CLR [6, 7] of the same molecule?
**A.** The CLR was 3.43 ± 1.15 mL/min/kg.

**Q.** What about the Tmax [6, 7] of the same molecule?
**A.** The Tmax was 15 min.

**Q.** What about the AUC(0-t) ([6]; male, Sprague-Dawley, rat, in vivo, po, 20 mg/kg, AUClast) of the same molecule?
**A.** The AUC(0-t) was 82.8 ng·h/mL.

**Q.** And the CL/F ([6]; male, Sprague-Dawley, rat, in vivo, po, 20 mg/kg, CL/F)?
**A.** Its CL/F is 3040 ± 805 mL/min/kg.

**Q.** And the CL renal ([6]; male, Sprague-Dawley, rat, in vivo, po, 20 mg/kg, CLR)?
**A.** The CL renal was 3.5 ± 1.1 mL/min/kg.

**Q.** And the Vd/F ([6]; male, Sprague-Dawley, rat, in vivo, po, 20 mg/kg, Vz/F)?
**A.** Its Vd/F is 670 ± 170 L/kg.

**Q.** What about the “Funabs (true unabsorbed fraction)” value [6, 8] of the same molecule?
**A.** The value was 36.5%.

**Q.** And the “absorbed fraction in the gastrointestinal tract” value [6, 8]?
**A.** Its value is 0.635.

**Q.** What about the “F increased by” value [6, 9] of the same molecule?
**A.** Its value is 102%.

**Q.** And the “Frel increased by” value [6, 9]?
**A.** Its value is 109%.

**Q.** What about the “Funabs (true unabsorbed fraction)” value [6, 9] of the same molecule?
**A.** The value was 20.0%.

**Q.** What about the “absorbed fraction in the gastrointestinal tract” value [6, 9] of the same molecule?
**A.** Its value is 0.801.

**Q.** And the Tmax ([6]; rats, docetaxel 20 mg/kg oral, with 30 mg/kg oral LC478)?
**A.** Its Tmax is 30 (15−30) min.
